The record followed here is patent publication US12134610B2, “Somatostatin subtype-2 receptor (SST2R) targeted therapeutics and uses thereof” (priority 2022, dated 2024).

Like-named read-outs stand apart in the source and are kept apart here. Starred links: 1 amine or outer side, 2 acyl side, 3 side chain; linkers in the order of their positions; H or OH if unused. Non-standard residues stand in square brackets, D forms with d. Residues, ends and D or L forms follow the SMILES beside them. *: point of attachment. X1 = Cc1cc(F)cc(-c2cnc(NCCNC(=O)CCOCCC(=O)*)c(-c3nc4ccc(Cl)cc4[nH]3)c2N2CCC(N)CC2)c1; Dolaproine = CO[C@@H]([C@@H]1CCCN1)[C@@H](C)C(=O)O; Dil = CC[C@H](C)[C@H](NC)[C@@H](CC(=O)O)OC; PABC = O=C(OCc1ccc(N[*:1])cc1)[*:2]; X2 = C[C@@H](N*)[C@@H](O)c1ccccc1; Cya = N[C@@H](CS(=O)(=O)O)C(=O)O; Cit = NC(=O)NCCC[C@H](N)C(=O)O; NMeV = CN[C@H](C(=O)O)C(C)C

Common to all, as to format: cell-based
In assay [1] the test system is NCI-H524 (ATCC) human small cell lung cancer cells. An outline of the steps: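 NCI-H524 cells (5,000/well) were exposed 24 h after plating to SMDC for 2 h, 11-point two-fold series from 1 uM. After washout they grew a further 70 h. Proliferation was read by CellTiter-Glo luminescence, % inhibition taken vs untreated control, and IC50 fitted by four-parameter nonlinear regression.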

Assay [2] concerns the target T1, SST2 (Homo sapiens, UniProt P30874).
T1 construct: host or cells: PathHunter CHO-K1 SST2 cells
Briefly: PathHunter CHO-K1 SST2 internalization assay. As to conditions: PathHunter CHO-K1 SST2, 90 min. An outline of the steps: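 PathHunter CHO-K1 SST2 cells, seeded and grown 48 h, were exposed to 11-point 1:3 dilutions of SMDC (top final 10 uM) for 90 min at 37 C, 5% CO2. Beta-Glo luminescence was read after 60 min at room temperature. Background-corrected duplicate means were fitted by four-parameter nonlinear regression to give IC50.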

Assay [3] concerns the target T2, human somatostatin receptor subtype 2 (Homo sapiens, UniProt P30874).
T2 construct: expressed in transfected cells
Briefly: Functional cAMP assay for SSTR2 agonists (HTRF) in CHO-K1 cells. The settings on record: CHO-K1 cells stably expressing human SST2, 20 min. An outline of the steps: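 CHO-K1 cells stably expressing receptor, plated 4 days before assay, treated 20 min at 37° C. with compound (typically 0-10,000 nM final) plus IBMX and 1.6 μM NKH477 to raise cAMP. HTRF read, 665/620 nm ratio; cAMP from standard curve, EC50 fitted.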

T2 sequence (P30874 whole entry): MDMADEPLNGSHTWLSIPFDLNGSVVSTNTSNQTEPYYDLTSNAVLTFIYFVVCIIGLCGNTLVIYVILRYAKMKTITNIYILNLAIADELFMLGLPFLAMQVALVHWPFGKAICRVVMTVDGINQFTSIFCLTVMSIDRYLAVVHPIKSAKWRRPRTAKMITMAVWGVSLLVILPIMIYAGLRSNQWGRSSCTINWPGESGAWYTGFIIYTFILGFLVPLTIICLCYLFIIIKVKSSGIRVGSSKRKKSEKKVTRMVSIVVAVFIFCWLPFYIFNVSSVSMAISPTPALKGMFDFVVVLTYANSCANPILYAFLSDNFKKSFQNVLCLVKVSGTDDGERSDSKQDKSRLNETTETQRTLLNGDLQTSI
T1 sequence (P30874 whole entry): as above

For the compound `CCC(C)C(C(CC(=O)N1CCCC1C(OC)C(C)C(=O)NC(C)C(O)c1ccccc1)OC)N(C)C(=O)C(NC(=O)C(C(C)C)N(C)C(=O)OCc1ccc(NC(=O)CNC(=O)[C@H](Cc2ccccc2)NC(=O)CNC(=O)CNC(=O)CCOCCC(=O)NCCNc2ncc(-c3cc(C)cc(F)c3)c(N3CCC(N)CC3)c2-c2nc3ccc(Cl)cc3[nH]2)cc1)C(C)C` (stereo in doubt) [Compound 35], the EC50 in assay [1] (2 h) is 17.4 nM; in assay [2] (read-out: Internalization EC50), 6.1 nM; in assay [3] (read-out: hSST2 cAMP Avg EC50), 0.58 nM.
Consider `CC[C@H](C)[C@@H]([C@@H](CC(=O)N1CCC[C@H]1[C@H](OC)[C@@H](C)C(=O)N[C@H](C)[C@@H](O)c1ccccc1)OC)N(C)C(=O)[C@@H](NC(=O)[C@H](C(C)C)N(C)C(=O)OCc1ccc(NC(=O)[C@H](CCCNC(N)=O)NC(=O)[C@@H](NC(=O)CCOCCOCCOCCOCCC(=O)NCCNc2ncc(-c3cc(C)cc(F)c3)c(N3CCC(N)CC3)c2-c2nc3ccc(Cl)cc3[nH]2)C(C)C)cc1C(N)=O)C(C)C` [Compound 123], for which the EC50 in assay [1] (2 h) worked out at 18 nM; in assay [2] (read-out: Internalization EC50) it was 7 nM; in assay [3] (read-out: hSST2 cAMP Avg EC50), 0.13 nM.
As to `CC[C@H](C)[C@@H]([C@@H](CC(=O)N1CCC[C@H]1[C@H](OC)[C@@H](C)C(=O)N[C@H](C)[C@@H](O)c1ccccc1)OC)N(C)C(=O)[C@@H](NC(=O)[C@H](C(C)C)N(C)C(=O)OCc1ccc(NC(=O)[C@H](CCCNC(N)=O)NC(=O)[C@@H](NC(=O)[C@H](CS(=O)(=O)O)NC(=O)[C@H](CCC(=O)O)NC(=O)CCOCCC(=O)NCCNc2ncc(-c3cc(C)cc(F)c3)c(N3CCC(N)CC3)c2-c2nc3ccc(Cl)cc3[nH]2)C(C)C)cc1)C(C)C` [Compound 105] (X1-E[Cya]V[Cit][PABC][NMeV]V[Dil][Dolaproine]-X2), the EC50 came to 290 nM in assay [1] (2 h), 14 nM in assay [2] (read-out: Internalization EC50) and 0.18 nM in assay [3] (read-out: hSST2 cAMP Avg EC50).
For `CC[C@H](C)[C@@H]([C@@H](CC(=O)N1CCC[C@H]1[C@H](OC)[C@@H](C)C(=O)N[C@H](C)[C@@H](O)c1ccccc1)OC)N(C)C(=O)[C@@H](NC(=O)[C@H](C(C)C)N(C)C(=O)OCc1ccc(NC(=O)[C@H](C)NC(=O)[C@@H](NC(=O)CCOCCC(=O)NCCNc2ncc(-c3cc(C)cc(F)c3)c(N3CCC(N)CC3)c2-c2nc3ccc(Cl)cc3[nH]2)C(C)C)c(O[C@@H]2O[C@H](CO)[C@@H](O)[C@H](O)[C@H]2O)c1)C(C)C` [Compound 131], the EC50 worked out at 4 nM in assay [1] (2 h), 5.2 nM in assay [2] (read-out: Internalization EC50) and 0.13 nM in assay [3] (read-out: hSST2 cAMP Avg EC50).
In the case of `CC[C@H](C)[C@@H]([C@@H](CC(=O)N1CCC[C@H]1[C@H](OC)[C@@H](C)C(=O)N[C@H](C)[C@@H](O)c1ccccc1)OC)N(C)C(=O)[C@@H](NC(=O)[C@H](C(C)C)N(C)C(=O)OCc1ccc(NC(=O)[C@H](CCCNC(N)=O)NC(=O)[C@@H](NC(=O)CN2CCN(CC(=O)O)CCN(CC(=O)NCCOCCOCCOCCOCCC(=O)NCCNc3ncc(-c4cc(C)cc(F)c4)c(N4CCC(N)CC4)c3-c3nc4ccc(Cl)cc4[nH]3)CC2)C(C)C)cc1)C(C)C` [Compound 39], the concentration for a half-maximal effect (EC50) in assay [1] (2 h) amounted to 35.9 nM; in assay [2] (read-out: Internalization EC50), 18.7 nM; in assay [3] (read-out: hSST2 cAMP Avg EC50) it was 0.12 nM.
On the same counts, the results for `CCC(C)C(C(CC(=O)N1CCCC1C(OC)C(C)C(=O)NC(C)C(O)c1ccccc1)OC)N(C)C(=O)C(NC(=O)C(C(C)C)N(C)C(=O)OCc1ccc(NC(=O)[C@H](CCCNC(N)=O)NC(=O)[C@@H](NC(=O)CCOCCOCCOCCOCCC(=O)NCCNc2ncc(-c3cc(C)cc(F)c3)c(N3CCC(NC)CC3)c2-c2nc3ccc(Cl)cc3[nH]2)C(C)C)cc1)C(C)C` (stereo in doubt) [Compound 41] are 27.8 nM, 24.6 nM and 0.48 nM.
In the case of `CC[C@H](C)[C@@H]([C@@H](CC(=O)N1CCC[C@H]1[C@H](OC)[C@@H](C)C(=O)N[C@H](C)[C@@H](O)c1ccccc1)OC)N(C)C(=O)[C@@H](NC(=O)[C@H](C(C)C)N(C)C(=O)OCc1ccc(NC(=O)[C@H](C)NC(=O)[C@@H](NC(=O)[C@H](CS(=O)(=O)O)NC(=O)CCOCCOCCOCCOCCC(=O)NCCNc2ncc(-c3cc(C)cc(F)c3)c(N3CCC(N)CC3)c2-c2nc3ccc(Cl)cc3[nH]2)C(C)C)cc1C(=O)NCCN)C(C)C` [Compound 158], the EC50 came out at 3 nM in assay [1] (2 h), 12 nM in assay [2] (read-out: Internalization EC50) and 0.24 nM in assay [3] (read-out: hSST2 cAMP Avg EC50).
For the compound `CC[C@H](C)[C@@H]([C@@H](CC(=O)N1CCC[C@H]1[C@H](OC)[C@@H](C)C(=O)N[C@H](C)[C@@H](O)c1ccccc1)OC)N(C)C(=O)[C@@H](NC(=O)[C@H](C(C)C)N(C)C(=O)OCc1ccc(NC(=O)[C@H](CCCNC(N)=O)NC(=O)[C@@H](NC(=O)CCOCCOCCOCCOCCC(=O)NCCNc2ncc(-c3cc(C)cc(F)c3)c(N3CCC(N)CC3)c2-c2nc3ccc(Cl)cc3[nH]2)C(C)C)cc1C(=O)NCC(N)=O)C(C)C` [Compound 124], the EC50 in assay [1] (2 h) worked out at 5.3 nM; in assay [2] (read-out: Internalization EC50), 5.6 nM; in assay [3] (read-out: hSST2 cAMP Avg EC50), 0.16 nM.
With `CC[C@H](C)[C@@H]([C@@H](CC(=O)N1CCC[C@H]1[C@H](OC)[C@@H](C)C(=O)N[C@H](C)[C@@H](O)c1ccccc1)OC)N(C)C(=O)[C@@H](NC(=O)[C@H](C(C)C)N(C)C(=O)OCc1ccc(NC(=O)[C@H](CCCNC(N)=O)NC(=O)[C@@H](NC(=O)CCOCCC(=O)NCCNc2ncc(-c3cc(C)cc(F)c3)c(N3CCC(N)CC3)c2-c2nc3ccc(Cl)cc3[nH]2)C(C)C)cc1C(=O)NCC(N)=O)C(C)C` [Compound 125], the EC50 in assay [1] (2 h) was 3.4 nM; in assay [2] (read-out: Internalization EC50), 3.9 nM; in assay [3] (read-out: hSST2 cAMP Avg EC50), 0.17 nM.
For the compound `CC[C@H](C)[C@@H]([C@@H](CC(=O)N1CCC[C@H]1[C@H](OC)[C@@H](C)C(=O)N[C@H](C)[C@@H](O)c1ccccc1)OC)N(C)C(=O)[C@@H](NC(=O)[C@H](C(C)C)N(C)C(=O)OCc1ccc(NC(=O)[C@H](CCCNC(N)=O)NC(=O)[C@@H](NC(=O)CN2CCN(CC(=O)O)CCN(CC(=O)NCCOCCC(=O)NCCNc3ncc(-c4cc(C)cc(F)c4)c(N4CCC(N)CC4)c3-c3nc4ccc(Cl)cc4[nH]3)CC2)C(C)C)cc1)C(C)C` [Compound 55], the EC50 in assay [1] (2 h) came out at 35 nM; in assay [2] (read-out: Internalization EC50), 8.3 nM; in assay [3] (read-out: hSST2 cAMP Avg EC50), 0.17 nM.
In the case of `CC[C@H](C)[C@@H]([C@@H](CC(=O)N1CCC[C@H]1[C@H](OC)[C@@H](C)C(=O)N[C@H](C)[C@@H](O)c1ccccc1)OC)N(C)C(=O)[C@@H](NC(=O)[C@H](C(C)C)N(C)C(=O)OCc1ccc(NC(=O)[C@H](CCCNC(N)=O)NC(=O)[C@@H](NC(=O)[C@@H](CC(=O)O)NC(=O)[C@@H](CC(=O)O)NC(=O)[C@@H](CC(=O)O)NC(=O)CCOCCC(=O)NCCNc2ncc(-c3cc(C)cc(F)c3)c(N3CCC(N)CC3)c2-c2nc3ccc(Cl)cc3[nH]2)C(C)C)cc1)C(C)C` [Compound 109] (X1-[dD][dD][dD]V[Cit][PABC][NMeV]V[Dil][Dolaproine]-X2), the EC50 in assay [1] (2 h) is 2500 nM; in assay [2] (read-out: Internalization EC50) it was 11 nM; in assay [3] (read-out: hSST2 cAMP Avg EC50), 0.7 nM.
Consider `CC[C@@]1(O)C(=O)OCc2c1cc1n(c2=O)Cc2c-1nc1cc(F)c(C)c3c1c2[C@@H](NC(=O)OCc1ccc(NC(=O)[C@H](CCCNC(N)=O)NC(=O)[C@@H](NC(=O)[C@H](CCC(=O)O)NC(=O)CCOCCC(=O)NCCNc2ncc(-c4cc(C)cc(F)c4)c(N4CCC(N)CC4)c2-c2nc4ccc(Cl)cc4[nH]2)C(C)C)cc1C(=O)NCCN)CC3` [Compound 94], for which the EC50 in assay [1] (2 h treatment, washout, additional 70 h, read-out: H524 EC50) came out at 260 nM; in assay [2] (Internalization EC50 (nM)), 2.4 nM; in assay [3] (hSST2 cAMP Avg EC50 (nM)), 0.16 nM.
For `CC[C@H](C)[C@@H]([C@@H](CC(=O)N1CCC[C@H]1[C@H](OC)[C@@H](C)C(=O)N[C@H](C)[C@@H](O)c1ccccc1)OC)N(C)C(=O)[C@@H](NC(=O)[C@H](C(C)C)N(C)C(=O)OCc1ccc(NC(=O)[C@H](C)NC(=O)[C@@H](NC(=O)CCOCCNCCNc2ncc(-c3cc(C)cc(F)c3)c(N3CCC(N)CC3)c2-c2nc3ccc(Cl)cc3[nH]2)C(C)C)c(O[C@@H]2O[C@H](C(=O)O)[C@@H](O)[C@H](O)[C@H]2O)c1)C(C)C` [Compound 130], the results for the EC50 in assay [1] (2 h), in assay [2] (read-out: Internalization EC50) and in assay [3] (read-out: hSST2 cAMP Avg EC50) were 140 nM, 25 nM and 0.29 nM, respectively.
On the same counts, the results for `CC[C@H](C)[C@@H]([C@@H](CC(=O)N1CCC[C@H]1[C@H](OC)[C@@H](C)C(=O)N[C@H](C)[C@@H](O)c1ccccc1)OC)N(C)C(=O)[C@@H](NC(=O)[C@H](C(C)C)N(C)C(=O)OCc1ccc(NC(=O)CCOCCOCCOCCOCCC(=O)NCCNc2ncc(-c3cc(C)cc(F)c3)c(N3CCC(N)CC3)c2-c2nc3ccc(Cl)cc3[nH]2)c(O[C@@H]2O[C@H](C(=O)O)[C@@H](O)[C@H](O)[C@H]2O)c1)C(C)C` [Compound 64] are 9500 nM, 12 nM and 0.1 nM.
Turning to `CC[C@H](C)[C@@H]([C@@H](CC(=O)N1CCC[C@H]1[C@H](OC)[C@@H](C)C(=O)N[C@H](C)[C@@H](O)c1ccccc1)OC)N(C)C(=O)[C@@H](NC(=O)[C@H](C(C)C)N(C)C(=O)OCc1ccc(NC(=O)[C@H](C)NC(=O)[C@@H](NC(=O)[C@H](CCC(=O)O)NC(=O)CCOCCC(=O)NCCNc2ncc(-c3cc(C)cc(F)c3)c(N3CCC(N)CC3)c2-c2nc3ccc(Cl)cc3[nH]2)C(C)C)cc1C(=O)NCCN)C(C)C` [Compound 116], the figures for the EC50 in assay [1] (2 h), in assay [2] (read-out: Internalization EC50) and in assay [3] (read-out: hSST2 cAMP Avg EC50) were 6.6 nM, 3.9 nM and 0.1 nM, respectively.
